According to patent publication US20210221866A1, “PROTEASE-RESISTANT LIPIDATED GLP-1 ANALOGS” (MEDIMMUNE LIMITED, priority 2015, published 2021):
Read-outs that look alike come from different tables or passages of the source. Numbered stars: 1 amine (or outer) side, 2 acyl side, 3 side chain; on linkers, the order of the positions; unused ones are H or OH. Square brackets hold non-standard residues; d marks the D form. Side chains are listed from the residue outwards. Peptide text beside a SMILES is read from it. * marks the point of attachment. γGlu = O=C(O)[C@H](CCC(=O)[*:2])N[*:1]; αMeF = C[C@](N)(Cc1ccccc1)C(=O)O; αMeK = C[C@](N)(CCCCN)C(=O)O; Lauroyl = CCCCCCCCCCCC(=O)*; AEEA = NCCOCCOCC(=O)O; Aib = CC(C)(N)C(=O)O

Key:
Format in all cases: cell-based
[1] = molecular target: T1, human GLP-1 receptor (GLP-1R) (Homo sapiens, UniProt P43220); assay: cAMP assay, human GLP-1R cells; details: cAMP activity
T1 construct: expressed in transfected cells; host or cells: HEK293 cells or CHO cells
How it was run: (§1)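 Peptide-stimulated cAMP measured by two-step HTRF after a 30 min room-temperature incubation with receptor-expressing cells (hGLP-1R, hGIPR at 1×10^5 cells/ml; hGCGR at 2×10^5 cells/ml). Duplicate dilutions; EC50 from 4-parameter logistic fit of % Delta F.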

[2] = molecular target: T2, human glucagon receptor (GCGR) (Homo sapiens, UniProt P47871); assay: cAMP assay, human GCGR cells
T2 construct: expressed in transfected cells; host or cells: HEK293 cells or CHO cells
How it was run: as §1

[3] = molecular target: T3, human glucose-dependent insulinotropic peptide receptor (GIPR) (Homo sapiens, UniProt P48546); assay: cAMP assay, human GIPR cells
T3 construct: expressed in transfected cells; host or cells: HEK293 cells or CHO cells
T3 sequence (P48546 22-466): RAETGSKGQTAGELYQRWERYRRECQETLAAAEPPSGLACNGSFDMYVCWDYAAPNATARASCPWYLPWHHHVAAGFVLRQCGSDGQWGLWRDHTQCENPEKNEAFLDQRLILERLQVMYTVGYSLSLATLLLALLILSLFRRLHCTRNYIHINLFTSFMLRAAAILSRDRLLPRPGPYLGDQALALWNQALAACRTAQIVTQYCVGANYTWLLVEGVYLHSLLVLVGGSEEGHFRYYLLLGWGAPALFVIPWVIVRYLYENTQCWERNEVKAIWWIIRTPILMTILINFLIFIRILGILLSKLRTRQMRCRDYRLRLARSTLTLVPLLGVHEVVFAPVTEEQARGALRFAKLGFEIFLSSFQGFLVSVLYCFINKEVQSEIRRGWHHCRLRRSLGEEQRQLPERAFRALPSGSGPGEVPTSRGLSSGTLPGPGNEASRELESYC
How it was run: as §1

GLP-1R (INS1e cells) = molecular target: T4, GLP-1R (INS1e cells) (Rattus norvegicus, UniProt P32301); assay: INS1e assay, cAMP activity at GLP-1R
T4 construct: endogenous in cells; host or cells: INS1e cells
T4 sequence (P32301 22-463): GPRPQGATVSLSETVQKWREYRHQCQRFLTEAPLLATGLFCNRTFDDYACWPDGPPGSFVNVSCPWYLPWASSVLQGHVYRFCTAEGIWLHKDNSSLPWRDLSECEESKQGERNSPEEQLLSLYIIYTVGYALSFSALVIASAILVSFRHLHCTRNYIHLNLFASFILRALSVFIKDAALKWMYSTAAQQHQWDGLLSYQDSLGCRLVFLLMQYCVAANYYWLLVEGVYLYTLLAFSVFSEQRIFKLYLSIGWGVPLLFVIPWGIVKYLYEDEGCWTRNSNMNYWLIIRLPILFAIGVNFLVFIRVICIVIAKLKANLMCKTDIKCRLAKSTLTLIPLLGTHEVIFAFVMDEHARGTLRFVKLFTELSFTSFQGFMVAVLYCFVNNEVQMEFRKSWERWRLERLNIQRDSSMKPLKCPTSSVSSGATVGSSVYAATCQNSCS

[4] = first determination (n1), read-out: Primary assay EC50 GLP-1R n1
[5] = mean of n1 and n2, read-out: Mean pM GLP-1R
[6] = second determination (n2), read-out: Primary assay EC50 GLP-1R n2
[7] = cAMP activity, second determination (n2), read-out: Primary assay EC50 Gluc-R
[8] = cAMP activity, first determination (n1), read-out: Primary assay EC50 GIP-R
[9] = cAMP activity, second determination (n2), read-out: Primary assay EC50 GIP-R
[10] = Table 8, substituted and mono-lipidated peptides, mean of n1 and n2, read-out: INS1e assay EC50 Mean pM GLP-1R
[11] = Table 8, substituted and mono-lipidated peptides, replicate n1, read-out: INS1e assay EC50 GLP-1R n1
[12] = Table 8, substituted and mono-lipidated peptides, replicate n2, read-out: INS1e assay EC50 GLP-1R n2

T1 sequence (P43220 24-463): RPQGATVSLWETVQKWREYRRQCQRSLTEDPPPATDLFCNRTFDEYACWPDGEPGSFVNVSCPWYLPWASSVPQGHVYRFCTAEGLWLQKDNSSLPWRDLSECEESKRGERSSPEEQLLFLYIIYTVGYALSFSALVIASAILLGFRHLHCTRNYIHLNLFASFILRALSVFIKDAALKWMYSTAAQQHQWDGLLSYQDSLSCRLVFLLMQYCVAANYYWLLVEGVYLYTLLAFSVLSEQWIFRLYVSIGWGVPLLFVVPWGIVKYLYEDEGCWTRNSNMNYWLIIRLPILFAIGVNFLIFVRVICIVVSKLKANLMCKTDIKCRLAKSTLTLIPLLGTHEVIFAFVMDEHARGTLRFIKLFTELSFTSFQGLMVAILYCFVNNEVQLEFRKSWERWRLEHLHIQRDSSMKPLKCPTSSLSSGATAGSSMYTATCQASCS
T2 sequence (P47871 26-477): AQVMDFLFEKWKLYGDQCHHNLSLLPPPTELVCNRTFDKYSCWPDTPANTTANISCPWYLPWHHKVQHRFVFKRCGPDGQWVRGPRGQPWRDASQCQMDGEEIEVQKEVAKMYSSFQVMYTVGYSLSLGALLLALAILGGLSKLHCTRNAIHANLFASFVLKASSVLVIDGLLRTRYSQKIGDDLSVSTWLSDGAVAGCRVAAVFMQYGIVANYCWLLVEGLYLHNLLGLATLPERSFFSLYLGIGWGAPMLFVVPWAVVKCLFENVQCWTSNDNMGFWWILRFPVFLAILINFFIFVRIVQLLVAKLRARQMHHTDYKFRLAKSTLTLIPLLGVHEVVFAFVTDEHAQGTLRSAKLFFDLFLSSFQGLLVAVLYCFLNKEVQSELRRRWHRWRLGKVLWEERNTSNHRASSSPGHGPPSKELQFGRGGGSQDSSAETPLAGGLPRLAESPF

| EC50 [1, 4] [pM] | EC50 [1, 5] [pM] | EC50 [1, 6] [pM] | EC50 [2, 7] [nM] | EC50 [3, 8] [nM] | EC50 [3, 9] [nM] | EC50 (GLP-1R (INS1e cells); [10]) [pM] | EC50 (GLP-1R (INS1e cells); [11]) [pM] | EC50 (GLP-1R (INS1e cells); [12]) [pM] | EC50 ([2]; Table 9, bis-lipidated peptides, first replicate, read-out: Primary assay EC50 Gluc-R (n1)) [nM] | EC50 ([2]; Table 9, bis-lipidated peptides, second replicate, read-out: Primary assay EC50 Gluc-R (n2)) [nM] | EC50 ([3]; Table 9, bis-lipidated peptides, first replicate, read-out: Primary assay EC50 GIP-R (n1)) [nM] | EC50 ([3]; Table 9, bis-lipidated peptides, second replicate, read-out: Primary assay EC50 GIP-R (n2)) [nM] | EC50 (GLP-1R (INS1e cells); Table 10, bis-lipidated peptides, mean of n1 and n2, read-out: INS1e assay EC50 Mean pM GLP-1R) [pM] | SMILES |
| --- | --- | --- | --- | --- | --- | --- | --- | --- | --- | --- | --- | --- | --- | --- |
| 8 | 6.2 | 4.5 | ≥ 28 | ≥ 28 | ≥ 28 | 462 | 548 | 376 |  |  |  |  |  | CCCCCCCCCCCC(=O)NCCOCCOCC(=O)NCCCC[C@H](NC(=O)[C@@H](NC(=O)[C@@H](NC(=O)[C@](C)(Cc1ccccc1)NC(=O)[C@H](C)NC(=O)[C@@H](NC(=O)[C@](C)(Cc1ccccc1)NC(=O)[C@H](CCC(=O)O)NC(=O)[C@](C)(CCCCN)NC(=O)[C@H](C)NC(=O)[C@H](C)NC(=O)[C@H](CCC(=O)O)NC(=O)CNC(=O)[C@H](CCC(=O)O)NC(=O)[C@H](CC(C)C)NC(=O)[C@](C)(Cc1ccccc1)NC(=O)[C@H](CO)NC(=O)[C@](C)(CO)NC(=O)[C@@H](NC(=O)[C@H](CC(=O)O)NC(=O)[C@H](CO)NC(=O)[C@@H](NC(=O)[C@](C)(Cc1ccccc1)NC(=O)[C@H](CO)NC(=O)CNC(=O)[C@H](CCC(=O)O)NC(=O)C(C)(C)NC(=O)[C@@H](N)Cc1c[nH]cn1)[C@@H](C)O)C(C)C)[C@@H](C)CC)C(C)C)C(C)C)C(=O)NCC(=O)NCC(N)=O [compound 170] |
| 2.9 | 3.2 | 3.5 | ≥ 26 | ≥ 26 | ≥ 26 | 56 | 35.2 | 77 |  |  |  |  |  | CCCCCCCCCCCCCCCCCC(=O)NCCOCCOCC(=O)NCCOCCOCC(=O)NCCOCCOCC(=O)NCCCC[C@H](NC(=O)[C@H](C)NC(=O)[C@H](C)NC(=O)[C@H](CCC(=O)O)NC(=O)CNC(=O)[C@H](CCC(=O)O)NC(=O)[C@H](CC(C)C)NC(=O)[C@](C)(Cc1ccccc1)NC(=O)[C@H](CO)NC(=O)[C@](C)(CO)NC(=O)[C@@H](NC(=O)[C@H](CC(=O)O)NC(=O)[C@H](CO)NC(=O)[C@@H](NC(=O)[C@](C)(Cc1ccccc1)NC(=O)[C@H](CO)NC(=O)CNC(=O)[C@H](CCC(=O)O)NC(=O)C(C)(C)NC(=O)[C@@H](N)Cc1c[nH]cn1)[C@@H](C)O)C(C)C)C(=O)N[C@@H](CCC(=O)O)C(=O)N[C@@](C)(Cc1ccccc1)C(=O)N[C@H](C(=O)N[C@@H](C)C(=O)N[C@@](C)(Cc1ccccc1)C(=O)N[C@H](C(=O)N[C@H](C(=O)N[C@@H](CCCCN)C(=O)NCC(=O)NCC(N)=O)C(C)C)C(C)C)[C@@H](C)CC [compound 56] |
|  |  |  |  |  |  |  |  |  | ≥ 22.2 | ≥ 22.2 | ≥ 22.2 | ≥ 22.2 | 1300 | CCCCCCCCCCCC(=O)N[C@@H](CCC(=O)NCCOCCOCC(=O)NCCOCCOCC(=O)NCCCC[C@H](NC(=O)[C@H](CC(=O)O)NC(=O)[C@H](CO)NC(=O)[C@@H](NC(=O)[C@](C)(Cc1ccccc1)NC(=O)[C@H](CO)NC(=O)CNC(=O)[C@H](CCC(=O)O)NC(=O)C(C)(C)NC(=O)[C@@H](N)Cc1c[nH]cn1)[C@@H](C)O)C(=O)N[C@@H](CO)C(=O)N[C@@H](CO)C(=O)N[C@@H](Cc1ccc(O)cc1)C(=O)N[C@@H](CC(C)C)C(=O)N[C@@H](CCC(=O)O)C(=O)NCC(=O)N[C@@H](CCC(=O)O)C(=O)N[C@@H](C)C(=O)N[C@@H](C)C(=O)N[C@@](C)(CCCCN)C(=O)N[C@@H](CCC(=O)O)C(=O)N[C@@H](Cc1ccccc1)C(=O)N[C@H](C(=O)N[C@@H](CCCCNC(=O)COCCOCCNC(=O)COCCOCCNC(=O)CC[C@H](NC(=O)CCCCCCCCCCC)C(=O)O)C(=O)N[C@@H](Cc1c[nH]c2ccccc12)C(=O)N[C@H](C(=O)N[C@H](C(=O)N[C@@H](CCC(=O)O)C(=O)NCC(=O)NCC(N)=O)C(C)C)C(C)C)[C@@H](C)CC)C(=O)O [compound 256] (H-H[Aib]EGS[αMeF]TSDK([AEEA-AEEA-γGlu-Lauroyl])SSYLEGEAA[αMeK]EFIK([AEEA-AEEA-γGlu-Lauroyl])WVVEGG-NH2; N-terminus assumed) |
